Targets include Cytochrome P450 2D6 (Homo sapiens, UniProt P10635); Cytochrome P450 2C9 (Homo sapiens, UniProt P11712); Cytochrome P450 3A4 (Homo sapiens, UniProt P08684).
In experiment [1] the target is T1, Corticotropin-releasing factor receptor 2/Corticotropin-releasing factor-binding protein (Homo sapiens, UniProt P24387+Q13324).
T1 sequence (Q13324 whole entry): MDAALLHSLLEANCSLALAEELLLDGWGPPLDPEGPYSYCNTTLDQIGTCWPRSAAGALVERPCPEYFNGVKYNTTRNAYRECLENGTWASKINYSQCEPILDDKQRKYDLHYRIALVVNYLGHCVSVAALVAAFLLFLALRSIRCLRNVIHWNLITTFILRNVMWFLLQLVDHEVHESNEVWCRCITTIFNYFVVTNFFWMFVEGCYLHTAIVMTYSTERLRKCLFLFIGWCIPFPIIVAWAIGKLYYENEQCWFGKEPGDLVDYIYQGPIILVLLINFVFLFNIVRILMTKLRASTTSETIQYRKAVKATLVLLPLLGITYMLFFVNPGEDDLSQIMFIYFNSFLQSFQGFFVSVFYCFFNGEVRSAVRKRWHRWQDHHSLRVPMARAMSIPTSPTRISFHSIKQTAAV
T1 sequence (P24387 whole entry): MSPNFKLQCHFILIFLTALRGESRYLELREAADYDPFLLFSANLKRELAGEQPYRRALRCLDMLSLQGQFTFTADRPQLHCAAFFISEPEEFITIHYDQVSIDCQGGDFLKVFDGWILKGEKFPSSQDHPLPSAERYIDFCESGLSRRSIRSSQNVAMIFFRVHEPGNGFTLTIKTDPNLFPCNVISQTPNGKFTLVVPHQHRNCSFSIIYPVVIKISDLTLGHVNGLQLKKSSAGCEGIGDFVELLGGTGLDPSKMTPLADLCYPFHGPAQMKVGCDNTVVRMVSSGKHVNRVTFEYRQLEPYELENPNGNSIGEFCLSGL
The experiment in a line: activators of CRF receptor 2 with binding protein – uHTS hits, confirmation (AID 602473). Type of experiment: functional. The following applies: read-out: EC50_Mean.

Experiment [2] has as its target T1, Corticotropin-releasing factor receptor 2/Corticotropin-releasing factor-binding protein. The experiment in a line: Dose Response confirmation of uHTS hits for small molecule antagonists of the CRF-binding protein and CRF-R2 receptor complex. It is filed as functional. As to conditions: read-out: IC50_Mean.
For the next experiment, the target named is T2, Cytochrome P450 1A2 (Homo sapiens, UniProt P05177).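 Also: PubChem cytochrome P450 panel assay, CYP1A2 panel member.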
T2 sequence (P05177 whole entry): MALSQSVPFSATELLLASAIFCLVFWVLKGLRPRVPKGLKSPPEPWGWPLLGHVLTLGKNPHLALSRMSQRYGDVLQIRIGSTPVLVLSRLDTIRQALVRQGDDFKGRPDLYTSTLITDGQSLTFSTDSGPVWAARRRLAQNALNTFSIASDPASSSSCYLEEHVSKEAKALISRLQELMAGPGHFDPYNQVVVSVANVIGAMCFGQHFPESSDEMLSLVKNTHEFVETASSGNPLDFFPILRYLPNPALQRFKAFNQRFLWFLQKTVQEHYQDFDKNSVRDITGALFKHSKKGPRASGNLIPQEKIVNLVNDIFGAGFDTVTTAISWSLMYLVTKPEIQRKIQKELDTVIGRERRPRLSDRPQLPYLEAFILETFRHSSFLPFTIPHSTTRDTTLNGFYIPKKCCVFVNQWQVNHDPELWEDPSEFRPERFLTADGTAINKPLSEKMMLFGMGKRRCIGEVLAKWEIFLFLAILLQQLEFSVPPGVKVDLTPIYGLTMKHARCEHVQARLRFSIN

The next experiment deals with T3, Streptokinase A (Streptococcus pyogenes serotype M1, UniProt P10520).
T3 sequence (P10520 whole entry): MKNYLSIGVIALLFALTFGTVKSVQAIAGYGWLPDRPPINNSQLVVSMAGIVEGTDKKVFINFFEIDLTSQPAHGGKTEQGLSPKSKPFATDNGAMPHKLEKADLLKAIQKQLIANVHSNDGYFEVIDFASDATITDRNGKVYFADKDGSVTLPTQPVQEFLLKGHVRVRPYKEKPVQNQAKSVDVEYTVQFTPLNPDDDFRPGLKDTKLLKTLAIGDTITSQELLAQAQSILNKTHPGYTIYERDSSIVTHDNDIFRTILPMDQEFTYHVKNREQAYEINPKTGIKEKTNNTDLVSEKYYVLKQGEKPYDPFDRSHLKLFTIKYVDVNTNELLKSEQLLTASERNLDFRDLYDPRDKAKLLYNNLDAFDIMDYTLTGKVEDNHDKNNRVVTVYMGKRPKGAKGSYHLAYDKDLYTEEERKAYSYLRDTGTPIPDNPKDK
The experiment in a line: viability-normalized secreted streptokinase activity reduction – plasminogen activation absorbance, OD405, dose response (AID 1914).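 Also: secreted streptokinase activity via plasminogen activation per viability signal from cell pellet.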 It is filed as functional, Streptococcus pyogenes M1 GAS.

The test system of experiment [3] is Streptococcus sp. 'group A'. The experiment in a line: Streptococcus pyogenes SK(-)GAS viability under kanamycin – luminescence, BacTiterGlo, confirmation, counter-screen for streptokinase expression inhibitor project, dose response (AID 1900). It is filed as functional, organism-based.
Another experiment concerns Streptococcus. The experiment in a line: GAS UMAA2166 growth inhibition – luminescence, BacTiterGlo, counter-screen for streptokinase expression inhibitor project, dose response (AID 1915).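 Also: potency for reduction of bacterial viability or growth.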 It is filed as functional, organism-based.
The next experiment has as its target Cytochrome P450 2C19 (Homo sapiens, UniProt P33261). Kind of experiment: Cytochrome panel assay with activity outcomes. Panel member name: p450-cyp2c19 Compounds with AC50 equal or less than 10 uM are considered active. It is filed as functional. As to conditions: read-out: AC50.

“And” between values parts separate entries of the source, which are not always exact repeats. Equal values may be shown once. The source made the active and inactive calls. Some results are limits rather than exact numbers.

Cytochrome P450 2D6, sequence (P10635 whole entry): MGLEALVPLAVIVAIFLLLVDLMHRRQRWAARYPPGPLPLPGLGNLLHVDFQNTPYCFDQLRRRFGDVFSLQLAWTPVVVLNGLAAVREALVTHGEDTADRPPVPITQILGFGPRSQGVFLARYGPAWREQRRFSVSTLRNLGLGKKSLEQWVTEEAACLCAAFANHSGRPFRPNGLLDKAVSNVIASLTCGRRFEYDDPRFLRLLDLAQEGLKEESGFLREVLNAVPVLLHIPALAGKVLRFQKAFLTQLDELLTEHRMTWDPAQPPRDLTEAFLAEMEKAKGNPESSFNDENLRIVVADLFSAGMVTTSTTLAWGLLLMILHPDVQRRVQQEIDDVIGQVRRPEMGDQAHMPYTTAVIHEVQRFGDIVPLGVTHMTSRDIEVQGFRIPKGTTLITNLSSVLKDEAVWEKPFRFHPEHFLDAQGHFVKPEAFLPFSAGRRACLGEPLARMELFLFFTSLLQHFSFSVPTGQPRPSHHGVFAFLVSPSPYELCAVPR
Cytochrome P450 3A4, sequence (P08684 whole entry): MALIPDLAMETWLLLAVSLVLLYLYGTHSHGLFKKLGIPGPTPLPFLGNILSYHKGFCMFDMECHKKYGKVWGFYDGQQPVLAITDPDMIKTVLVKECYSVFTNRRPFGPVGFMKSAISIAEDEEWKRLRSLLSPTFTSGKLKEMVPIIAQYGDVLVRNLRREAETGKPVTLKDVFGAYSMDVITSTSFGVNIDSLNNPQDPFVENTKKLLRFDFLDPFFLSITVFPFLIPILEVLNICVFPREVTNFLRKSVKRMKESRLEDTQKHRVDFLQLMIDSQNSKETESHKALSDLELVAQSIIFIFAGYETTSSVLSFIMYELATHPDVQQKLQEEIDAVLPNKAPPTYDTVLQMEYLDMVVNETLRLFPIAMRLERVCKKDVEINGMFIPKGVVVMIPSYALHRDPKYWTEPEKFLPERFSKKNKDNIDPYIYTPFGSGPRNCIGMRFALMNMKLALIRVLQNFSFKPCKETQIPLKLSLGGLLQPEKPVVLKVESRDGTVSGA
Cytochrome P450 2C9, sequence (P11712 whole entry): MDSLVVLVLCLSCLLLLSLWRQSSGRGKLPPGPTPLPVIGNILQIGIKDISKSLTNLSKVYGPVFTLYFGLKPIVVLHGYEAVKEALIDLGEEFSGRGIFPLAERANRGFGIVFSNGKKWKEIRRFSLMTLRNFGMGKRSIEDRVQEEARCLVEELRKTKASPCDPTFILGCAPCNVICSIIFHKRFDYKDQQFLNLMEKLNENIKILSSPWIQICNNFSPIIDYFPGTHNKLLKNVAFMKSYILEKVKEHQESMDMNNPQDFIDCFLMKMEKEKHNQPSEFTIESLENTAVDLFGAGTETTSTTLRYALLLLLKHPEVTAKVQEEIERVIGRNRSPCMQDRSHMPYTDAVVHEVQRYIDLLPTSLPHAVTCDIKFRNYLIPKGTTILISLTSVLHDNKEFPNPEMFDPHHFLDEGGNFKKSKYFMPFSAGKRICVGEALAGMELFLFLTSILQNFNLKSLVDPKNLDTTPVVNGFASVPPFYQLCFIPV
Cytochrome P450 2C19, sequence (P33261 whole entry): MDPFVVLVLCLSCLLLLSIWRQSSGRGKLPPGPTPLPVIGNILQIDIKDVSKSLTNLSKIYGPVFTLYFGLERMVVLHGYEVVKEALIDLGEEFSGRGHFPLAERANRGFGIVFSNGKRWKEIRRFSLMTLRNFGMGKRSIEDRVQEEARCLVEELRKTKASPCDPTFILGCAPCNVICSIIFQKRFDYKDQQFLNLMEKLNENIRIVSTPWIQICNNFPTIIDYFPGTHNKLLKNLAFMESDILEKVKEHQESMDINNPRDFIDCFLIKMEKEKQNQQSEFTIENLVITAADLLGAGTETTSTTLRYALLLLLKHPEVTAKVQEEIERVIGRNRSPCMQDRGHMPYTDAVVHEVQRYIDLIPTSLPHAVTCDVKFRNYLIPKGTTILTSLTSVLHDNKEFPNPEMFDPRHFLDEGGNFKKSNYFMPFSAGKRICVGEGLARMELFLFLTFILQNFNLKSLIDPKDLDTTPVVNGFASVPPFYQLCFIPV

Consider `N#CCSc1nc2ccc(N3CCCCC3)cc2c(=O)n1Cc1ccccc1`, for which the results for the AC50 on Cytochrome P450 2D6 and on Cytochrome P450 2C9 were 5.62 µM (inconclusive) and 4.47 µM (inconclusive), respectively.

For `CCOC(=O)c1c[nH]nc1N=C(S)Nc1ccc(Cl)cc1`, the EC50 in experiment [1] is > 53 µM (inactive). In [2], the IC50 is > 47.1 µM (inactive).

Consider `CCCCC(=O)Nc1ccc(C)c(O)c1`, for which the AC50 was 17.8 µM (inconclusive) at Cytochrome P450 2D6 and 14.1 µM (inconclusive) at Cytochrome P450 2C9.

Regarding `O=C(/C=C\c1ccc(O)c(O)c1)O[C@@H](Cc1ccc(O)c(O)c1)C(=O)O`, the AC50 at Cytochrome P450 1A2 is 25.1 µM (inconclusive).

Take `NC1(C(=O)O)CC(C(=O)O)C1` (configuration not stated): at Cytochrome P450 1A2, the AC50 was 39.8 µM (inconclusive).

For `Nc1nc(N)c(/N=N\c2ccc([As](=O)(O)O)c(O)c2)c(N)n1`, the AC50 at Cytochrome P450 1A2 was 6.31 µM (inconclusive).

Consider `Cc1ccc2nc(SCC(=O)c3ccc(Cl)s3)[nH]c2c1`, for which the EC50 at Streptokinase A was > 150 µM (not active).

With `Cc1cccc(NC2=NN=C(c3c(C)[nH]c4ccccc34)CS2)c1`, the figures for the EC50 (in experiment [3] (Streptococcus sp. 'group A'); in the experiment on Streptococcus (Streptococcus); on Streptokinase A) were 3.91 µM (active), 6.58 µM (active) and > 150 µM (not active), respectively.

Regarding `O=C(Nc1ccccc1)N1CC2(CCN(C(=O)c3cnccn3)CC2)C1`, the AC50 on Cytochrome P450 1A2 was 20 µM (inconclusive).

With `Cc1ccc(C(O)(C(=O)NNc2ccc3ccccc3n2)c2ccc(C)cc2)cc1`, the EC50 in experiment [3] was 2.55 µM (active); in experiment [3] (Streptococcus sp. 'group A') it was 3.72 µM (active); in the experiment on Streptococcus it was 10.9 µM (active); in the experiment on Streptococcus (Streptococcus) it was 12.1 µM (active); at Streptokinase A, > 150 µM (not active) and 8.85 µM (active).

With `N#Cc1ccc(CN2CC[C@@]3(CCCN(S(=O)(=O)c4ccccc4)C3)C2)cc1`, the AC50 on Cytochrome P450 1A2 was 15.8 µM (inconclusive).

In the case of `Cc1cnn(CCC(=O)NN=C(S)Nc2cccc(Cl)c2)c1`, the figures for the AC50 at Cytochrome P450 2C19, on Cytochrome P450 1A2 and on Cytochrome P450 2C9 were 39.8 µM (inconclusive), 15.8 µM (inconclusive) and 15.8 µM (inconclusive), respectively.

As for `COc1cc(NC(=O)CSc2cc(C)c3cc(C)cc(C)c3n2)c(C(=O)O)cc1OC`, the EC50 in experiment [1] is > 53 µM (inactive). The IC50 in [2] was > 47.1 µM (inactive).

For `CCOc1cc(NC(=O)C2CCCCC2)c(OCC)cc1NC(=O)c1ccco1`, the AC50 at Cytochrome P450 3A4 is 1.12 µM (inconclusive); on Cytochrome P450 1A2 it was 2 µM (inconclusive); at Cytochrome P450 2C9 it was 11.2 µM (inconclusive).

Turning to `COc1ccccc1-c1nnc(NC(=O)c2ccc(S(=O)(=O)N(C)CC3CCCO3)cc2)o1` (configuration not stated), the EC50 in experiment [3] (Streptococcus sp. 'group A') is 19.5 µM (active); in the experiment with Streptococcus (Streptococcus), 78.9 µM (active); at Streptokinase A, > 150 µM (not active).

With `CCn1c(COc2ccccc2)nnc1SCC(=O)c1cccc([N+](=O)[O-])c1`, the AC50 at Cytochrome P450 2C19 is 39.8 µM (inconclusive); on Cytochrome P450 1A2 it was 28.2 µM (inconclusive).

With `CCCC(=O)Nc1ccc(-c2nc3cc(C)c(C)cc3o2)c(O)c1`, the EC50 in experiment [1] was > 53 µM (inactive). In addition, the IC50 in experiment [2] was > 47.1 µM (inactive).

On to `O=[N+]([O-])c1cccc(-c2nc(-c3ccccn3)no2)c1`, for which the EC50 in experiment [1] was > 53 µM (inactive). Further, the IC50 in experiment [2] is > 47.1 µM (inactive).

In the case of `N#CCCn1c(=O)c(-c2cccc(C#N)c2)nc2cnc(N3CCOCC3)nc21`, the AC50 on Cytochrome P450 3A4 and at Cytochrome P450 1A2 was 15.8 µM (inconclusive) throughout.

In the case of `CC1(C)C(=O)C(c2ccccc2)=C2CN3C(=O)N(CCc4ccccc4)C(=O)C3(Cc3ccc(F)cc3)C=C21` (configuration not stated), the AC50 at Cytochrome P450 1A2 was 15.8 µM (inconclusive); on Cytochrome P450 2C9, 10 µM (inconclusive).

As to `CCOc1ccccc1/C=C(/NC(=O)c1ccccc1)C(=O)NC(C)c1ccccc1` (configuration not stated), the EC50 in [1] was > 53 µM (inactive). The IC50 in experiment [2] was > 47.1 µM (inactive).

With `CCCCC(C(=O)O)C(C)CC(=O)Nc1nncs1` (configuration not stated), in experiment [1], the EC50 is > 53 µM (inactive). Also, the IC50 in experiment [2] is > 47.1 µM (inactive).

Turning to `CNP(=O)(Oc1ccccc1)OC12CC3CC(CC(C3)C1)C2` (configuration not stated), the EC50 in experiment [1] is > 53 µM (inactive). In experiment [2], the IC50 was > 47.1 µM (inactive).

Regarding `CCOC(=O)[C@@H]1[C@H]2COc3ccccc3[C@H]2N2C(=O)N(c3ccc(C(F)(F)F)cc3)C(=O)[C@]12C`, the EC50 in [3] (Streptococcus sp. 'group A') is 9.78 µM (active); in the experiment with Streptococcus (Streptococcus), > 150 µM (not active); on Streptokinase A, 17 µM (inconclusive).

Consider `O=c1c(CCc2ccccc2)nc2cnc(N3CCNCC3)nc2n1Cc1ccc(F)cc1`, for which the AC50 at Cytochrome P450 2D6 was 25.1 µM (inconclusive); on Cytochrome P450 1A2, 10 µM (inconclusive).

Regarding `O=C(Nc1cccc(-c2ccc(N3CCOCC3)nn2)c1)c1ccccc1Cl`, the EC50 (in experiment [3] (Streptococcus sp. 'group A'); with Streptococcus (Streptococcus); on Streptokinase A) was > 150 µM (not active) in each case.

Consider `COc1ccc(Nc2nc(NN)nc(Nc3ccc(OC)cc3)n2)cc1`, for which the results for the EC50 (in experiment [3] (Streptococcus sp. 'group A'); with Streptococcus (Streptococcus); at Streptokinase A) were 11.3 µM (active), > 150 µM (not active) and > 150 µM (not active), respectively.

With `CCOC(=O)c1sc2ncnc(NCC(c3cccs3)N(C)C)c2c1C` (configuration not stated), the EC50 in experiment [3] (Streptococcus sp. 'group A') is 7.15 µM (active); in the experiment on Streptococcus (Streptococcus) it was 50.8 µM (active); at Streptokinase A, > 150 µM (not active).

With `CCS(=O)(=O)c1ccc(C(=O)Nc2ccccc2)c(Cl)c1Cl`, the results for the AC50 at Cytochrome P450 2D6 and on Cytochrome P450 1A2 were 31.6 µM (inconclusive) and 14.1 µM (inconclusive), respectively.

Regarding `COc1ccc(NC(=S)Nc2ccccc2)cc1`, the AC50 at Cytochrome P450 1A2 was 1.26 µM (inconclusive).

As to `CC[C@@](O)(C(=O)O)c1cc2n(c(=O)c1CO)Cc1cc3ccccc3nc1-2`, the AC50 on Cytochrome P450 3A4 and on Cytochrome P450 1A2 was 3.16 µM (inconclusive) in each case.

With `O=C(NC1CCCC1)C1CCC(CNS(=O)(=O)c2ccc(F)cc2)CC1` (configuration not stated), in experiment [1], the EC50 was > 53 µM (inactive). In addition, the IC50 in experiment [2] was > 47.1 µM (inactive).

For the compound `O=C(Nc1ccc(S(=O)(=O)N2CCOCC2)cc1)c1ccc(Cl)c([N+](=O)[O-])c1`, the EC50 in experiment [1] was > 53 µM (inactive). Further, the IC50 in experiment [2] is > 47.1 µM (inactive).

Take `O=C(NCCN1CCN(C(=O)NC2CCCCC2)CC1)NC1CCCCC1`: in experiment [1], the EC50 is > 53 µM (inactive). For the same compound, the IC50 in experiment [2] was > 47.1 µM (inactive).

As for `O=C(O)c1ccc(/C=N/Nc2cccc(C(F)(F)F)c2)cc1`, the EC50 in experiment [1] was > 53 µM (inactive). Besides, the IC50 in [2] was 43.7 µM (active).

Take `O=C(Nc1ccn(CCCNCc2ccc3c(c2)OCO3)c(=O)n1)OCc1ccccc1`: the EC50 in experiment [1] is > 53 µM (inactive). For the same compound, the IC50 in experiment [2] is > 47.1 µM (inactive).

Take `Cc1onc(O)c1CC[C@H](N)C(=O)O`: the AC50 at Cytochrome P450 1A2 is 39.8 µM (inconclusive).

For the origin of these results see ChEMBL document CHEMBL1201862, “PubChem BioAssay data set” (2004).
